For one assay, the target named is T1, Aurora B (Homo sapiens, UniProt Q96GD4).
T1 construct: purchased Invitrogen PV3970
In words: In vitro Aurora B kinase assay (Invitrogen Z'-lyte kinase assay kit, Ser/Thr 1 peptide). As to conditions: 64 µM ATP. In kind it is biochemical. On the procedure: The IC50 for the different compounds was determined with Invitrogen Z'-Iyte kinase assay kit Ser/Thr 1 peptide PV3174 following the manufacturer's instructions. […] This amount was then used in subsequent assay steps.
Compounds were prepared in 384-well plates (Greiner 384-well PP 781280) at a highest concentration of 400 µM (in 4% DMSO) and then serially diluted in 2-fold steps by hand, keeping the DMSO percentage constant. 1.25 µl of compound solution was subsequently transferred 1:1 to a 384-well assay plate (Greiner 384-well ProxiPlate Plus F 6008260) for screening at a highest concentration in the final assay of 100 µM (in 1% DMSO).
In the first step, 2.5 µl of a solution containing 8 nM Aurora A (batch S74, prepared in-house at EMBL) or 40 nM Aurora B (Invitrogen PV3970) and 4 µM Ser/Thr peptide 1 (Invitrogen PV3174) was added to each well, followed by 1.25 µl of the respective ATP solution (40 µM for Aurora A, 256 µM for Aurora B). […] In the final step, the reaction in each well was stopped by the addition of 2.5 µl Stop reagent, followed by a brief centrifugation step and immediate readout (PerkinElmer EnVision HTS; ex. 405 nm, coumarin em. 450 nm, fluorescein em. 535 nm).
Percentage phosphorylation was calculated using 0% and 100% phosphorylation controls. […]

In a further assay the test system is FGFR. Description: RTK-Assay (ELISA, chemiluminescence). In kind it is biochemical. On the procedure:
(§1) To determine the IC50 of receptor-tyrosine-kinase an assay based on the ELISA-principle using kinases from Biomol (N-terminally fused to GST), POD-coupled antibody from Calbiochem (PY20) and BM chemiluminescence ELISA substrate from Roche was followed.
(§2) In short, a white 96 wells microplate was incubated overnight with 100 µl/well of the substrate solution (poly-Glu-Tyr diluted with PBS to 100 µg/ml) at 4 °C. The solution was removed and the plate was washed twice for 2 min with PBS-T. Afterwards the kinase solution (50 µl/well)( KDR (VEGFR2), 5 ng; Flt4 (VEGFR3), 20 ng; EGFR, 5 ng; IGFR, 15 ng; FGFR, 10 ng and Tie2, 20 ng) and the inhibitor solution (25 µl/well) were added to each well. To perform positive and negative control, 5% aqueous DMSO (25 µl/well) were used instead of inhibitor solution. Addition of ATP solution (25 µl/well) started the reaction, whereas 40 mM MnCl2 solution (25 µl/well) was added to the negative control instead of ATP. After incubation under mild shaking conditions for 30 min at rt the plate was washed with PBS-T (3 x 2 min) and subsequently incubated with antibody solution (anti-Phosphotyrosine-antibody (POD-coupled) diluted 1:10.000 in PBS-T + 0,2% (m/v) BSA)(100 µl/well) for 1 h again while shaking. In the end the plate was washed with PBS-T (3x5 min) and provided with the chemiluminescence substrate (50 µl/well). After 3 min the occurring luminescence was measured using a luminometer. […] For determination of IC50 values, the relative luminescence units per second (RLU/s) were blotted against the inhibitor concentrations. In doing so each concentration measurement was done triplicate and at least 5 different inhibitor concentrations were used to determine IC50 value.
(§3) This assay is based on the ELISA-principle using kinases from Biomol (N-terminally fused to GST), POD-coupled antibody from Calbiochem (PY20) and BM chemiluminescence ELISA substrate from Roche. […]
(§4) For determination of IC50 values, the relative luminescence units per second (RLU/s) were blotted against the inhibitor concentrations. […]
Background: In an ELISA, binding on a coated surface is turned into a signal by an enzyme label.

The target in another assay is T2, KDR (VEGFR2) (Homo sapiens, UniProt P35968).
T2 construct: GST (N); purchased Biomol
Description: RTK-Assay (ELISA, chemiluminescence). The format is biochemical. Conditions: read-out: IC50 KDR (VEGFR 2). As to the method:
as §1, §2, §3, §4

The next assay concerns HeLa cells. In words: Fixed cell analysis of mitotic phenotypes (fluorescence / immunofluorescence). In kind it is cell-based, human. Conditions: 40 µM, 24 h. On the procedure: For fixed cell analysis, HeLa or H2B-GFP/mRFP-αTubulin HeLa cells were grown on glass coverslips and treated as described above. Cells were fixed in ice cold methanol and mounted in Mowiol. Alternatively, non fluorescent HeLa were treated and subjected to immunofluorescence with anti-tubulin antibodies (Sigma, DM1A) and Hoechst to stain the DNA. Cells were observed on a Leica DM16000B microscope with the HCX PL APO CS 63x 1.4 objective. Images were taken with a Leica DFC 350FX camera, controlled by Leica Application Suit (LAS-AF 6000) software and processed with Adobe Photoshop.
To get a better idea about the defects causing cell division failure in cells treated with (C), we examined fixed cells to better visualize the chromosomes and the microtubules. […] In parallel, standard HeLa cells were treated in the same way. The cells were fixed and processed for immunofluorescence with anti-tubulin antibodies to visualize the microtubules and Hoechst to stain the DNA.

A further assay has as its system hTERT-RPE1 cells. In words: Cilia disassembly assay. In kind it is cell-based. Conditions: pretreatment 40 µM, serum stimulation after 48 h starvation. As to the method: Cilia assembly and disassembly assays were performed as described in Pugacheva et al., Cell 2007, 129, 1351-1363. […] For analysis of cilia disassembly, cilia were assembled by 48 h starvation in Opti-MEM, and disassembled by incubation in DMEM-10% serum. Cells were fixed after 2 and 4 h. […] To visualize the centrosomes and the cilia, fixed cells were immunostained with anti-γ-tubulin (Sigma GTU88) and anti-acetylated-tubulin (Sigma), and DNA was stained with Hoechst.

“Also recorded” adds a separate entry of the source.

T1 sequence (Q96GD4 whole entry): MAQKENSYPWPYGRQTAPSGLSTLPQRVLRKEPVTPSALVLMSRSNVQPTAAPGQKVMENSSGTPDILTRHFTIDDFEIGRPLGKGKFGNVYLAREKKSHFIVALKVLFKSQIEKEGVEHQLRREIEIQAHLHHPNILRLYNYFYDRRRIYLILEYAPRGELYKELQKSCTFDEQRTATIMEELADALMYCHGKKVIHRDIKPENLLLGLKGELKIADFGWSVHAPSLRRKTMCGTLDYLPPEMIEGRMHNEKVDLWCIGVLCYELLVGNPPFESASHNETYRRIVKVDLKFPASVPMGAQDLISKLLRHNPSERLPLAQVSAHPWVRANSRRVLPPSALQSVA
T2 sequence (P35968 20-1356, species assumed): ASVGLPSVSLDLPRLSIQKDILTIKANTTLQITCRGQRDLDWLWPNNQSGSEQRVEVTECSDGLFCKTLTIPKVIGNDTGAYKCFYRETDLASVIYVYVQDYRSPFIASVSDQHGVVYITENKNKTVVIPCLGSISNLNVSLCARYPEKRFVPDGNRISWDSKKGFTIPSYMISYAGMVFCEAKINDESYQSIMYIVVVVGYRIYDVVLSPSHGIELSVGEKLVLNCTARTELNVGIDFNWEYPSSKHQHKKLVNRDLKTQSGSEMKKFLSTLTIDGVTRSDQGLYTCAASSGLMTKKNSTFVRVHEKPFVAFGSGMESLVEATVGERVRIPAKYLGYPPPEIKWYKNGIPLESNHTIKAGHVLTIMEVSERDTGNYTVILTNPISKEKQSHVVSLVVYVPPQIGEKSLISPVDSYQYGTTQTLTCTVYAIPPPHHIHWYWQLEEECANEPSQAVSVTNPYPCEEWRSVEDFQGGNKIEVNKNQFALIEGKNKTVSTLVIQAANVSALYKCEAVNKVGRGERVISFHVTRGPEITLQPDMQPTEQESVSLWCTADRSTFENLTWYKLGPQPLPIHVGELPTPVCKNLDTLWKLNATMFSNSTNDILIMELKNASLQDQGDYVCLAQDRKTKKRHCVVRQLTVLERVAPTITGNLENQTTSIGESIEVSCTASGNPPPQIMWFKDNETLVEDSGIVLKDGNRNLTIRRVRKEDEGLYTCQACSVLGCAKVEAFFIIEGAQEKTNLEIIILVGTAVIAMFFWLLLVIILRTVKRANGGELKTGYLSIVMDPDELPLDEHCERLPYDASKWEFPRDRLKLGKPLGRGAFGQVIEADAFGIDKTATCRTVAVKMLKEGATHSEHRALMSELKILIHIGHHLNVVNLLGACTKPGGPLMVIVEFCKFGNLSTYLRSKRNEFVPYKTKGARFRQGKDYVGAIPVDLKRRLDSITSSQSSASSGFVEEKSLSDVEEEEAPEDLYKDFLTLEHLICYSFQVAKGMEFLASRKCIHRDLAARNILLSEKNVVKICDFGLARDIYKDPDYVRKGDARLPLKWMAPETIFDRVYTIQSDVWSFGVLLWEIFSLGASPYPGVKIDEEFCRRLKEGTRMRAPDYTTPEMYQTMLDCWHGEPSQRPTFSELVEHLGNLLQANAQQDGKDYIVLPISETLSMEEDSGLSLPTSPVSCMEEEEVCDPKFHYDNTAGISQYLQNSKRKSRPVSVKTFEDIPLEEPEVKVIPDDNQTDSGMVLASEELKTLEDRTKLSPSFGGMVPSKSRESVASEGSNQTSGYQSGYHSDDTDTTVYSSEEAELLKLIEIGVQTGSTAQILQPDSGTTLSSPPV

Regarding `CC(C)Nc1nc(-c2ccco2)nc2ccc(/C=C/C(C)(C)O)cc12` [Compound (A), (E)-4-(2-(Furan-2-yl)-4-(isopropylamino)quinazolin-6-yl)-2-methylbut-3-en-2-ol], the IC50 against Aurora B was 16.2 µM; in the assay on FGFR it was more than 100 µM.
As for `CC(C)Nc1nc(-c2ccco2)nc2ccc(C#CCO)cc12` [Compound (C), 3-(2-(Furan-2-yl)-4-(isoiproipylamino)quinazolin-6-yl)prop-2-yn-l-ol], the figures for the IC50 against Aurora B, in the assay with FGFR and on KDR (VEGFR2) were 3380 µM, more than 100 µM and more than 100 µM, respectively. For the same molecule, the “mitotic phenotype of fixed cells” value in the assay on HeLa cells was “increased formation of multipolar spindles and other abnormal mitotic structures; also recorded: large proportion of abnormal mitotic spindles”. Moreover, the cilia disassembly entry in the assay on hTERT-RPE1 cells is “strongly inhibited; also recorded: impaired”.

Usually IC50 stands for the concentration that inhibits the measured activity by half.

Values taken from EP2241565A1, “Aurora kinase inhibitors compounds” (Universität Leipzig, priority 2009, dated 2010).
